Target: T1, PI3Kδ (PI3 Kd) (Homo sapiens, UniProt O00329)
T1 construct: purchased Millipore
Test: PI3K HTRF enzymatic inhibition assay (cell-free), PI3Kd
Assay type: biochemical
Description: PI3K α, β, δ and γ Enzymatic Inhibition Assays
Compounds were screened for their ability to inhibit PI3Kα (PI3Kα), PI3Kβ (PI3 Kb), PI3Kδ (PI3 Kd) and PI3Kγ (PI3 Kg) using a cell-free based PI3K HTRF™ assay (Millipore, ref. #33-017) All reagents to perform the reactions were prepared according to the manufacturer protocol. All PI3K enzymes were recombinant and were purchased at Millipore.
These concentrations were final in the assay. • 3) A reservoir plate containing Adenosine TriPhosphate (ATP) diluted in the Millipore kit buffer was prepared for each isoform. […] Incubation was done for 8 minutes (for all four isoforms) then the reaction was stopped by addition of the Stop solution. The Detection solution was added. These solutions were prepared previously according to the kit specifications.

T1 sequence (O00329 whole entry): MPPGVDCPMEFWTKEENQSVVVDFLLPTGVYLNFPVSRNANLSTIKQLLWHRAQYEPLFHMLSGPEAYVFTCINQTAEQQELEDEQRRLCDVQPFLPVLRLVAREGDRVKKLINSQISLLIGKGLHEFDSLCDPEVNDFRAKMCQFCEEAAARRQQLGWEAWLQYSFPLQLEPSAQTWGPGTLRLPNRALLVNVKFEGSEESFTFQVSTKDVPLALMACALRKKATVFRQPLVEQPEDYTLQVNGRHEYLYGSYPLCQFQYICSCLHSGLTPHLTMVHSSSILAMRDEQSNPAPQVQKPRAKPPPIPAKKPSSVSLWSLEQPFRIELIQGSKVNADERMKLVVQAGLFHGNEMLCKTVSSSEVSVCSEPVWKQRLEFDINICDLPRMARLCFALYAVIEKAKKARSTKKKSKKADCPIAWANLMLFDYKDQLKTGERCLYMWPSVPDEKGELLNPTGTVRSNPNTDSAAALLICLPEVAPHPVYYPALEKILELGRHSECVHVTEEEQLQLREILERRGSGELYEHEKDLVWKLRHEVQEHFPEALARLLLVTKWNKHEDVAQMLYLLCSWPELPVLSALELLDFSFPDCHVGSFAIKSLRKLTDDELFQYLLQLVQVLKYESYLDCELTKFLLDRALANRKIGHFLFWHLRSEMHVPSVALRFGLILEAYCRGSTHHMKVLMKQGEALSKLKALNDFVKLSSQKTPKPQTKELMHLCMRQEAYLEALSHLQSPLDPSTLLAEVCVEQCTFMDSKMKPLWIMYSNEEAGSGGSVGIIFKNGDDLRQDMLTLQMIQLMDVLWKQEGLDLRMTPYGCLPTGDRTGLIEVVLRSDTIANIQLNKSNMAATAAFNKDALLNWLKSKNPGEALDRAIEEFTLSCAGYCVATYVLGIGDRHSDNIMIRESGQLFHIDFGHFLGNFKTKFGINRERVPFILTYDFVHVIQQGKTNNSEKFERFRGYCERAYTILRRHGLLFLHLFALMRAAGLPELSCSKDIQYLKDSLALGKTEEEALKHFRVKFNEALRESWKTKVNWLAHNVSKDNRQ
T1 sequence (P27986 whole entry partner): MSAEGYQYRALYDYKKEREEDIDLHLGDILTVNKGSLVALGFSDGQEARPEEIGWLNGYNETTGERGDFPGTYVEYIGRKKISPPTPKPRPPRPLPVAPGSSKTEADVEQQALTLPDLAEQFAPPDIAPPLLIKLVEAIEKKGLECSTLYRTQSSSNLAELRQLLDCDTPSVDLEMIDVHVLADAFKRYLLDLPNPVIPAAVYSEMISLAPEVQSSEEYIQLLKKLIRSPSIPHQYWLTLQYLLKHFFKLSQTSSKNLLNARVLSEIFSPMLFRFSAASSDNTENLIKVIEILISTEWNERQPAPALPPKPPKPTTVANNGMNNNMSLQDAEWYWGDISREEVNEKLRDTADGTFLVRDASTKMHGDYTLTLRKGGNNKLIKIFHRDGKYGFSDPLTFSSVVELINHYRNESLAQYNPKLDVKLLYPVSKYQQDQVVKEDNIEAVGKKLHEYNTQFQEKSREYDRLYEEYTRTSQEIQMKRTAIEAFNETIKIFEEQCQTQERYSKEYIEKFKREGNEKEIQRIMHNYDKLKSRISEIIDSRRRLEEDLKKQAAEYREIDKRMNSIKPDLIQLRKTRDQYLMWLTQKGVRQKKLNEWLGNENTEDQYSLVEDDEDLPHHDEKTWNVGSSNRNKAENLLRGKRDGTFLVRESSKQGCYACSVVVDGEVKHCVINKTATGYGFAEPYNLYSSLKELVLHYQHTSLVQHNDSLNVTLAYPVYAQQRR

| SMILES | IC50 [nM] |
| --- | --- |
| N#Cc1c(N)ncnc1N[C@@H](CO)c1nn2cccc2c(=O)n1-c1cc(F)cc(F)c1 [Example 157, (R)-4-Amino-6-(1-(3-(3,5-difluorophenyl)-4-oxo-3,4-dihydropyrrolo[1,2-f][1,2,4]triazin-2-yl)-2-hydroxyethylamino)pyrimidine-5-carbonitrile] | 66 |
| C[C@H](Nc1ncnc(N)c1C#N)c1nn2ccnc2c(=O)n1-c1ccccc1 [Example 50, (S)-4-amino-6-(1-(4-oxo-3-phenyl-3,4-dihydroimidazo[1,2-f][1,2,4]triazin-2-yl)ethylamino)pyrimidine-5-carbonitrile] | 57 |
| C[C@H](Nc1ncnc(N)c1C#N)c1nn2cccc2c(=O)n1-c1cccc(O)c1 [Example 179] | 7 |
| C[C@H](Nc1ncnc(N)c1C#N)c1nn2cccc2c(=O)n1-c1ccccn1 [Example 43, (S)-4-Amino-6-(1-(4-oxo-3-(pyridin-2-yl)-3,4-dihydropyrrolo[1,2-f][1,2,4]triazin-2-yl)ethylamino)pyrimidine-5-carbonitrile] | 11 |
| C[C@H](Nc1ncnc(N)c1C#N)c1nn2ccc(C#N)c2c(=O)n1-c1cc(Cl)cc(Cl)c1 [Example 104, (S)-2-(1-(6-Amino-5-cyanopyrimidin-4-ylamino)ethyl)-3-(3,5-dichlorophenyl)-4-oxo-3,4-dihydropyrrolo[1,2-f][1,2,4]triazine-5-carbonitrile] | 36 |
| C[C@H](Nc1ncnc(N)c1C#N)c1nn2cccc2c(=O)n1C1CCC1 [Example 138, (S)-4-Amino-6-(1-(3-cyclobutyl-4-oxo-3,4-dihydropyrrolo[1,2-f][1,2,4]triazin-2-yl)ethylamino)pyrimidine-5-carbonitrile] | 8 |
| C[C@H](Nc1ncnc(N)c1C#N)c1nn2ccc(C(F)F)c2c(=O)n1-c1ccccc1 [Example 47, (S)-4-Amino-6-(1-(5-(difluoromethyl)-4-oxo-3-phenyl-3,4-dihydropyrrolo[1,2-f][1,2,4]triazin-2-yl)ethylamino)pyrimidine-5-carbonitrile] | 1 |
| C[C@H](Nc1ncnc(N)c1C#N)c1nn2ccc(Br)c2c(=O)[nH]1 [Example 142, (S)-4-Amino-6-(1-(5-bromo-4-oxo-3,4-dihydropyrrolo[1,2-f][1,2,4]triazin-2-yl)ethylamino)pyrimidine-5-carbonitrile] | 5 |
| C[C@H](Nc1ncnc(N)c1C#N)c1nn2ccc(Br)c2c(=O)n1-c1cccc(C(F)(F)F)c1 [Example 169, (S)-4-Amino-6-(1-(5-bromo-4-oxo-3-(3-(trifluoromethyl)phenyl)-3,4-dihydropyrrolo[1,2-f][1,2,4]triazin-2-yl)ethylamino)pyrimidine-5-carbonitrile] | 6 |
| O=c1c2cccn2nc([C@H](CO)Nc2ncnc3[nH]cnc23)n1-c1ccccc1 [Example 62, (R)-2-(1-(9H-Purin-6-ylamino)-2-hydroxyethyl)-3-phenylpyrrolo[1,2-f][1,2,4]triazin-4(3H)-one] | 73 |
| Cc1nc(-c2ccn3nc([C@H](C)Nc4ncnc5[nH]cnc45)n(-c4cc(F)cc(F)c4)c(=O)c23)no1 [Example 125, (S)-2-(1-(9H-Purin-6-ylamino)ethyl)-3-(3,5-difluorophenyl)-5-(5-methyl-1,2,4-oxadiazol-3-yl)pyrrolo[1,2-f][1,2,4]triazin-4(3H)-one] | 90 |
| O=c1c2cccn2nc([C@@H]2CCCN2c2ncnc3[nH]cnc23)n1-c1ccccc1 [Example 44, (S)-2-(1-(9H-Purin-6-yl)pyrrolidin-2-yl)-3-phenylpyrrolo[1,2-f][1,2,4]triazin-4(3H)-one] | 29 |

Source: patent US9340547B2, “Pyrrolotriazinone derivatives as inhibitors P13K” (Almirall, S.A., priority 2011, dated 2016)
